# Experimental data: US11590075B2, “Methods and products for reducing adhesions” (priority 2017, dated 2023)
# Key:
# primary fibroblasts [1] = test: Alamar Blue proliferation assay; assay type: cell-based
# Method: Alamar Blue Proliferation Assay Fibroblasts were seeded at a density of 2×10^4 cells/well in 96 well plates (Nuns, Sydney Australia) and cultured at 37° C., 5% CO2 for 24 hours Media was aspirated and cells were washed twice in phosphate buffered saline. The following treatments were used: • (i) No treatment control (NTC)—DMEM (Invitrogen, Sydney Australia) containing Penicillin at 500 U/mL, Streptomycin and Amphotericin B (Sigma-Aldrich, MO) at 0.5 mg/mL, 10% Fetal Bovine Serum. • (ii) 5 mM of Deferiprone dissolved in control media. • (iii) 10 mM Deferiprone dissolved in control media. • (iv) 20 mM Deferiprone dissolved in control media. Readings were taken at 4, 24, 48 and 72 hours. At each time point media was aspirated and fresh control media with 10% Alamar Blue was added and incubated in the dark for 6 hours at 37° C. 5% CO2. The plate was then read at 570 and 595 nm according to manufacturer's instructions. Fibroblasts proliferation was measured using the Alamar Blue reduction assay. The assay is based on use of resazurin, a non-toxic, cell permeable compound which is blue in colour and non-fluorescent. Resazurin is reduced to resorufin a compound that is red in colour and highly fluorescent. Viable cells continuously convert resazurin to resorufin, increasing the overall fluorescence and colour of the media surrounding cells.
# primary fibroblasts [2] = test: Fibroblast wound healing protocol (gap closure, migration); assay type: cell-based
# Method: 1. Fibroblast Wound Healing Protocol Fibroblasts were stained with CellTrace Proliferation Kit (Thermo-Fisher Scientific, Life Technologies, CA) and prepared in a suspension of 3×10^5 cells/mL of DMEM (Invitrogen, Sydney Australia) containing Penicillin at 500 U/mL, Streptomycin and Amphotericin B (Sigma-Aldrich, MO) at 0.5 mg/mL, 10% Fetal Bovine Serum. 70 uL of this suspension were seeded into each chamber inserts of the Ibidi culture-insert 24 (Ibidi GmbH, Munich, Germany) and cultured for 12 hours at 37° C., 5% CO2. The inserts were then removed with sterile forceps and cells washed twice in phosphate buffered saline. The following treatments were used: • (i) No treatment control (NTC) DMEM (Invitrogen, Sydney Australia) containing Penicillin at 500 U/mL, Streptomycin and Amphotericin B (Sigma-Aldrich, MO) at 0.5 mg/mL 10% Fetal Bovine Serum. • (ii) 5 mM of Deferiprone dissolved in control media. • (iii) 10 mM Deferiprone dissolved in control media. • (iv) 20 mM Deferiprone dissolved in control media. The effects on cells were recorded in real time at 37° C., 5% CO2 and imaged at intervals of 0, 8, 24 and 48 hours using Zeiss LSM700 Confocal (Carl Zeiss, Oberkochen, Germany) until gap closure. Image properties: DAPI blue signal; 405 nm laser; line step 2; line average 4; bit 12; zoom 0.5; 512×512 pixels; time series.
# [3] = test system: primary human nasal epithelial cells (HNECs); test: Cytotoxicity, LDH assay, HNECs; assay type: cell-based; details: exposure 1 h, 2 h, 3 h, 4 h, 5 h and 6 h; deferiprone 1, 5, 10, 20 mM (p>0.05); Triton X-100 0.5%
# Source text: Primary human nasal epithelial […] harvested from nasal polyps by gentle brushing in a method described by Ramezanpour et al. (2016) “Th17 cytokines disrupt the airway mucosal barrier in chronic rhinosinusitis” Mediators of inflammation; 2016: 9798206. doi: 10.1155/2016/9798206. Extracted cells were suspended in Bronchial Epithelial Growth Media (BEGM, CC-3170, Lonza, Walkersville, Md., USA), supplemented with 2% Ultroser G (Pall Corporation, Port Washington, N.Y., USA). The cell suspension was depleted of macrophages using anti-CD68 (Dako, Glostrup, Denmark) coated culture dishes, and HNECs were maintained with B-ALITM growth medium (Lonza, Walkersville, USA) in collagen coated flasks (Thermo Scientific, Walthman, Mass., USA) in a cell incubator at 37° C. with 5% CO2. Primary human fibroblasts or epithelial cells were grown in DMEM and BEGEM (Lonza, Walkersville, USA) medium respectively. Cells were maintained in a fully humidified incubator with 5% CO2 at 37° C. prior to cytotoxicity studies. […] The optical density (OD) was measured at 490 Mil on a FLUOstar OPTIMA plate reader (BMG Labtech, Ortenberg, Germany), Cell culture studies were performed as three independent experiments.
# [4] = test system: primary human nasal fibroblasts; test: Cytotoxicity, LDH assay, nasal fibroblasts; assay type: cell-based; details: exposure 1 h, 2 h, 3 h, 4 h, 5 h and 6 h; deferiprone 1, 5, 10, 20 mM (p>0.05); Triton X-100 0.5%
# Method: Sinonasal tissue was biopsied from paranasal sinus mucosa and transferred to a 6-well culture plate with 2 ml Dulbecco's Modified Eagle's medium (DMEM, Invitrogen, UK) supplemented with 1:100 L-glutamine, 10% Fetal bovine serum (FBS, Sigma-Aldrich), 1:100 ascorbic acid 2-phosphate, and 1:100 penicillin streptomycin (Gibco, Life Technologies) and incubated. Every 2-3 days, the tissue was washed gently with 1 ml phosphate-buffered saline (PBS) and medium was replaced with 1.5 ml fresh medium until fibroblasts became confluent after approximately 2 weeks. Once confluent, fibroblasts were washed with 2 ml PBS, trypsinized and collected followed by centrifugation at 400×g for 8 minutes. The supernatant was removed and pellet resuspended in 1 ml PBS along with 50 μl Dynabeads Epithelial Enrich (Invitrogen, USA). The tube was wrapped in parafilm and placed on a rotor mixer for 20 minutes at room temperature (RT). Supernatant containing fibroblasts were transferred to a T25 tissue culture flask and the tube containing the remaining beads discarded Primary human fibroblasts or epithelial cells were grown in DMEM and BEGEM (Lonza, Walkersville, USA) medium respectively. […] The optical density (OD) was measured at 490 Mil on a FLUOstar OPTIMA plate reader (BMG Labtech, Ortenberg, Germany), Cell culture studies were performed as three independent experiments.
# HNEC-ALI cultures = test: Wound healing (migration) scratch assay, HNEC-ALI; assay type: cell-based, human; details: 1, 5, 10, 20 mM for up to 68 hours; untreated healed by 68 hours
# Method: HNECs were grown until 80% confluent then harvested for seeding onto collagen coated 6.5 mm permeable Transwell plates (BD Biosciences, San Jose, Calif., USA) at a density of 5×10^4 cells per well. Cells were maintained with B-ALI™ growth medium for 2-3 days in a cell incubator at 37° C. with 5% CO2. On day 3 after seeding, the apical media was removed and the basal media replaced with B-ALI™ differentiation media, exposing the apical cell surface to the atmosphere. Human nasal epithelial cultures at air liquid interface (HNEC-ALI) were maintained for a minimum of 14 days for development of tight junctions and 28 days for cilia generation. In the fibroblast wound closure assay, fibroblasts were seeded in 24 well plates, stained with CellTrace™ Violet (Invitrogen/Life Technologies, USA) and allowed to get 80% confluent in 24 hours. A straight vertical scratch was made down through the fibroblast and HNEC-ALI cell monolayers by using a 200 μl pipette tip. […] The wound closure (cell migration) was recorded using time-lapse LSM700 confocal scanning laser microscopy (Zeiss Microscopy, Germany), with an image recorded every 4 hours in a temperature and CO2 controlled chamber. Data was analysed using Image.
# [5] = test system: primary human nasal fibroblasts; test: Wound healing (migration) scratch assay, fibroblasts; assay type: cell-based; details: for wound healing of primary fibroblasts: after 44 hours
# Method: In the fibroblast wound closure assay, fibroblasts were seeded in 24 well plates, stained with CellTrace™ Violet (Invitrogen/Life Technologies, USA) and allowed to get 80% confluent in 24 hours. A straight vertical scratch was made down through the fibroblast and HNEC-ALI cell monolayers by using a 200 μl pipette tip. The media and cell debris was aspirated carefully and culture media with different concentrations of deferiprone (1 mM, 5 mM, 10 mM, 20 mM) or media only (negative control) added to each well for 72 hours. At time zero, cells were treated with 1 μg/ml mitomycin (Accord Healthcare Inc, NDC 16729-108-11, USA) to inhibit cell proliferation. The wound closure (cell migration) was recorded using time-lapse LSM700 confocal scanning laser microscopy (Zeiss Microscopy, Germany), with an image recorded every 4 hours in a temperature and CO2 controlled chamber. Data was analysed using Image.
# [6] = test system: IL-6 production in human nasal epithelial cells; test: IL-6 ELISA, HNECs with Poly (I:C); assay type: cell-based; details: 24 hours, in the presence of Poly (I:C) LMW
# Method: (§1) Supernatants were collected from HNECs and fibroblasts after 24 hours of exposure with different concentrations of deferiprone in the presence/absence of the pro-inflammatory agent Poly (I:C) (10 μg/ml) or IL-1β (10 ng/ml Sigma, Saint Louis, USA) respectively. Interleukin-6 (IL-6) protein levels were estimated with an ELISA kit using rat anti-human IL-6 antibodies (BD Biosciences, New Jersey, USA), according to the manufacturer's instructions. All measurements were performed in duplicate using a FLUOstar OPTIMA plate reader (BMG Labtech, Ortenberg, Germany). The tissue sample concentration was calculated from a standard curve and corrected for protein concentration.
# [7] = test system: IL-6 production in nasal fibroblast cells; test: IL-6 ELISA, nasal fibroblasts with IL-1β; assay type: cell-based, human; details: in the presence or absence of IL-13 (so in the source), after 24 hours
# Method: as §1
# [8] = test system: type I collagen release in primary human nasal fibroblasts; test: Collagen assay (procollagen type I C-peptide ELISA); assay type: cell-based; details: different concentrations (1, 5, 10, 20 mM)
# Method: Primary human nasal fibroblasts were seeded in 24-well tissue-culture plates at a density of 5×10^5 grown in DMEM until confluent. […] Following treatment, the supernatant was collected and the protein level of type I collagen was measured with a procollagen type I C-peptide ELISA kit (Takara Bio Inc, Otsu, Japan). Experimental procedures followed the manufacturer's instruction. Briefly, 20 μl of culture medium and 100 μl of the antibody-POD conjugate solution were sequentially added into microtiter plates and reacted for 3 hours at 37° C. After 4× washing with washing buffer solution (1×PBST), 100 μl of the substrate solution was added and incubated for 15 minutes at RT. Finally, the stop solution (100 μl) was added and corresponding absorbance was recorded at 450 nm using a FLUOstar OPTIMA plate reader (BMG Labtech, Ortenberg, Germany).
smiles,measurement,setting,value
"Cc1c(O)c(=O)ccn1C [deferiprone, 3-hydroxy-1,2-dimethylpyridin-4(1H)-one]",inhibition of fibroblast proliferation (Alamar Blue),"primary fibroblasts [1]; 5, 10, 20 mM deferiprone, readings at 4, 24, 48, 72 hours, 2-way ANOVA",significant dose dependent effect
same,time course of inhibition of proliferation,primary fibroblasts [1]; occurred over a period of at least 24 to 72 hours,time dependent
same,closure of void in fibroblasts,"primary fibroblasts [2]; 20 mM deferiprone, up to 48 hours, control cells close the void after 48 hours",minimal closure
same,fibroblast migration,"primary fibroblasts [2]; within 48 hours, 5, 10, 20 mM",inhibited fibroblast migration
same,LDH release (cytotoxicity) in HNECs,[3],no significant increase in LDH release
same,LDH release (cytotoxicity) in fibroblasts,[4],no significant increase in LDH release
same,wound healing in HNEC-ALI cultures,HNEC-ALI cultures,did not show any significant delay in wound healing
same,wound healing of primary fibroblasts,[5]; 5 mM,significantly delayed healing
same,wound healing of primary fibroblasts,[5]; 10 mM,significantly delayed healing
same,wound closure of primary fibroblasts,"[5]; 20 mM, at 28 h and all time points thereafter, untreated closed after 44 hours",significant delay in wound closure
same,reduction of IL-6 protein concentrations in HNECs,"[6]; 10 mM, p=0.001",80%
same,reduction of IL-6 protein concentrations in HNECs,"[6]; 20 mM, p=0.0001",96%
same,secretion of IL-6 in nasal fibroblasts,[7],did not alter the secretion of IL-6
same,collagen protein concentrations in supernatants of fibroblast monolayers,"[8]; 24 hours as printed, absence of ASC, p<0.0001",significantly reduced collagen protein concentrations
same,collagen secretion in the presence of L-Ascorbic acid-2 phosphate (ASC),[8]; with ASC,significantly inhibited collagen secretion in a dose dependent manner
